What was measured:
[1] = tested on: purinergic ionotropic P2X7 receptor; set-up: method as in Bartlett et al., 2014; conditions: ref Bartlett et al., 2014; cited from earlier work
[2] = tested on: proteins (fibronectin proteolytic fragment 45 kDa, E. coli beta-galactosidase, bovine serum albumin, chicken ovalbumin, equine cytochrome C); test: Dye protein affinity assay: SDS-PAGE staining intensity, densitometry; type: binding; conditions: SDS-page protein bands, dyes 0.025% in fixative; compared to BBG and Me-BBG; p < 0.05
Method: In order to have the same dye/protein molar ratio for dye protein affinity assay, a set of molecular weight standards was obtained by mixing 430 nmol of the following proteins: i. fibronectin proteolytic fragment 45 kDa; ii. E. coli beta-galactosidase 116.3 kDa; iii. bovine serum albumin 66.5 kDa; iv. chicken ovalbumin 42.7 kDa; v. equine cytochrome C 12.3 kDa. Polyacrylamide gel electrophoresis was carried out loading the molecular weight standard in a 9% precast gels (Biorad), as triplicates on separate lanes. Gel electrophoresis was carried out at 20V for 60–90 min in denaturing conditions. After runs, each lane was cut and soaked overnight in a different staining solution, consisting of dyes dissolved at 0.025% in gel fixative solution (40% methanol, 20% acetic acid). Thereafter, gel lanes were decolored in the fixative solution without dyes, until the background stain reached the minimum level compared to stained protein bands. Images were collected with a scanner at 300 dpi, 16M colors. Densitometric analysis was done using the software ImageJ ([Rueden et al., 2017]). LogD values (pH 7.4) were calculated in silico using ACD/Labs software (version 11.1 2008, ACD Labs). […]

[3] = Ex vivo model of vitreoretinal surgery, dye quantification in retina by HPLC; set-up: species or system swine; conditions: porcine eye ex vivo, 40 µl of 0.05% PBB formulation, removed after 30 s, after ILM peeling
Excerpt: (§1) Ex vivo model of vitreoretinal surgery has been previously reported for evaluation of indocyanine green ILM staining properties ([Nakamura et al., 2003]). We carried out on swine eyes the same procedure previously reported on primates, with slight modifications. The following formulations have been tested in the ex vivo model of vitreoretinal surgery: Brilliant PeelTM (0.025% Brilliant Blue G BBG; Fluoron, Ulm, Germany); ILM-BlueTM (0.025% Brilliant Blue G; Dutch Ophthalmic Research Center (International) […], Italy); View-ILM® (0.03% methyl-Brilliant Blue […], Ponte San Nicolò-Padova, Italy); PBB® (0.05% Pure benzyl-Brilliant Blue G; Alfa-Instruments, Casoria, Italy). […] The levels of the dye molecules were quantified by means of HPLC analysis. […] The dried residue was reconstituted in 100 μl of mobile phase by vortexing for 120 s, filtered again on 0.45 μm filters, and, finally, 10-20 μl aliquots were injected into the chromatographic apparatus (each sample was analyzed in triplicate). […] BBG, Me-BBG, and PBB® were analyzed using three different isocratic ternary mobile phases consisting of (A) acetonitrile, (B) methanol, and (C) triethylamine 0.3% (v/v) in water (pH adjusted to 3.0 with trifluoroacetic acid) with different proportions (A:B:C) as follows: BBG 49:5:46 (v/v/v); Me-BBG 54:5:41 (v/v/v); PBB® 62:5:33 (v/v/v). […]

[4] = Ex vivo model of vitreoretinal surgery, dye quantification in ILM by HPLC; set-up: species or system swine; conditions: porcine eye ex vivo, 40 µl, 30 s
Excerpt: as §1

dye levels in the retina [3]	fold increase of ILM dye levels compared to Me-BBG (View ILM) formulation ([4]; p < 0.05)	Compound	P2X7 receptor antagonism [1]	Protein binding quantified as staining intensity (% staining, % of control BBG) [2]	dye content in ILM compared to Brilliant Peel formulation (BBG) [4]
–	–	CCOc1ccc(Nc2ccc(/C(=C3C=C/C(=[N+](/CC)Cc4cccc(S(=O)(=O)[O-])c4)C=C/3C)c3ccc(N(CC)Cc4cccc(S(=O)(=O)O)c4)cc3C)cc2)cc1 [Entry 1, Brilliant Blue G]	potent selective non-competitive antagonist	–	–
52 ng/mg	6.0 fold	CCOc1ccc(N(Cc2ccccc2)c2ccc(C(=C3C=CC(=[N+](CC)Cc4cccc(S(=O)(=O)[O-])c4)C=C3C)c3ccc(N(CC)Cc4cccc(S(=O)(=O)O)c4)cc3C)cc2)cc1 [Entry 7, pure benzyl-Brilliant Blue G]	–	higher protein affinity (% staining) compared to BBG and Me-BBG	higher, even though not statistical significant

Source: article PMC7261835, “New Brilliant Blue G Derivative as Pharmacological Tool in Retinal Surgery” (Frontiers in Pharmacology, 2020)
